Assay results taken from paper PMC4767605 (Cancer chemotherapy and pharmacology, 2016).

Experiment: Phase I study: plasma pharmacokinetics of ASP9853 and docetaxel
Type: in vivo, human
Conditions: compared with reported docetaxel alone [29]

In the case of `CC(=O)O[C@@]12CO[C@@H]1C[C@H](O)[C@@]1(C)C(=O)[C@H](O)C3=C(C)[C@@H](OC(=O)[C@H](O)[C@@H](NC(=O)OC(C)(C)C)c4ccccc4)C[C@@](O)([C@@H](OC(=O)c4ccccc4)[C@H]21)C3(C)C` [docetaxel, reference compound], the “Docetaxel PK in combination with ASP9853” value is reported as “appeared similar to that reported for docetaxel alone”.
